Test results from US8859009B2, “Method of fixing antibacterial agent and article obtained by the method” (Hiroshima University, priority 2008, dated 2014).

System: strain GDH18 of Candida Albicans
Test: Antibacterial-property test on hemocytometer cover glass test pieces (colour change of agar), Example 3
Format: cell-based
Protocol: A hemocytometer cover glass was used as a test piece of an article on which an antibacterial agent is fixed. A strain GDH18 of Candida Albicans was used as the bacteria for use in the antibacterial-property test. The bacteria was incubated on Sabouraud agar for 18 hours and a bacteria solution having bacteria concentration of 1×10^6 cells/mL was prepared using ultra pure water (MQ water). The test pieces were immersed for 1 minute in approximately 30 mL of ozone water (0.4 to 0.6 ppm) produced by using ultra pure water and “Ozone Dash” manufactured by Ozone Total System Co., Ltd. The test pieces were then drained on a filtering paper and immersed for 5 minutes in following aqueous solutions, respectively: Each test piece was then taken out of the aqueous solution, immediately washed with water such that excess antibacterial composition was removed, whereby test pieces for the antibacterial-property test were obtained. […] Each test piece was left for 2 hours at the room temperature to wait for sedimentation of the bacteria. Thereafter, 5 mL of Sabouraud agar containing chlorophenol red as a pH indicator (Candida yellow agar, manufactured by Fuji Pharma Co., Ltd.) was added to each test piece and the respective test pieces were continually incubated at 37° C. […] Antibacterial property was evaluated using such change in color as described above of the agar as an index.

SMILES: CCCCCCCCCCCCCCCCCC[N+](C)(C)CCC[Si](OCC)(OCC)OCC.[Cl-] [EtAC, octadecyldimethyl(3-triethoxysilylpropyl)ammonium chloride]
- antibacterial performance (control without ozone water treatment, EtAC treatment 5 minutes): hardly exhibited antibacterial performance
- color of the agar (upper control: immersed in MQ water (no ozone water), then 70% ethanol solution of EtAC 5 minutes, 45 hours): strongly yellow
- number of bacteria cells (upper control: immersed in MQ water (no ozone water), then 70% ethanol solution of EtAC 5 minutes, 45 hours, from agar colour): ≥ 5e+07 mL⁻¹
